Consider eight molecules from ChEMBL document CHEMBL1201862, “PubChem BioAssay data set” (2004).

The target in experiment [1] is T1, Heat shock factor protein 1 (Mus musculus, UniProt P38532).
T1 sequence (P38532 whole entry): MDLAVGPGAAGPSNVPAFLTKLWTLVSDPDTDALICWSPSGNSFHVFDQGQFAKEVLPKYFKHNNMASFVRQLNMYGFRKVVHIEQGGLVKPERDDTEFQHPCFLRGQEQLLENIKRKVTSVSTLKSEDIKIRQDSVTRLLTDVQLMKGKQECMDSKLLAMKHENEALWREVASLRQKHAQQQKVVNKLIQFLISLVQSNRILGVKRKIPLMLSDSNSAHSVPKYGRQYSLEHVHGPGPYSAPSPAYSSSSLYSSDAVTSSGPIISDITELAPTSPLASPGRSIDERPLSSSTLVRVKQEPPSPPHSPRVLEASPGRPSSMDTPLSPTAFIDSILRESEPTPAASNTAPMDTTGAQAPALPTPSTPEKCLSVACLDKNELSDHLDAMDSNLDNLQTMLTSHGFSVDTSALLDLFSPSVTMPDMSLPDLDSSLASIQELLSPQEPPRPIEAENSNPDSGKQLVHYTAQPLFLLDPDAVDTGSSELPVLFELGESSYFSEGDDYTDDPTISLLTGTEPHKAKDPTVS
The experiment is described as follows: HSF1 potentiators in luciferase reporter cells, confirmation, cell-based, NIH3T3, luminescence, dose retest (AID 435004).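 Further: stress induced by proteasome inhibitor MG132 added 30 min after compound; luciferase reporter driven by HSF1 response element in NIH3T3 cells; actives raise luminescence as potentiators of the MG132 stress response.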 The experiment is classed as functional.

Experiment [2] has as its target Endoplasmic reticulum aminopeptidase 1 (Homo sapiens, UniProt Q9NZ08). As to the kind of experiment: ERAP1 aminopeptidase inhibitors, dose response, biochemical, cherry-pick, set 2, plate reader (AID 743314).
The nature of experiment [3]: Luminescence-based cell-based high throughput dose response assay to identify activators of the DAF-12 from the parasite S. stercoralis (ssDAF-12). The experiment is classed as functional.
Experiment [4] has as its target T2, Oxysterols receptor LXR-beta (Homo sapiens, UniProt P55055).
T2 sequence (P55055 whole entry): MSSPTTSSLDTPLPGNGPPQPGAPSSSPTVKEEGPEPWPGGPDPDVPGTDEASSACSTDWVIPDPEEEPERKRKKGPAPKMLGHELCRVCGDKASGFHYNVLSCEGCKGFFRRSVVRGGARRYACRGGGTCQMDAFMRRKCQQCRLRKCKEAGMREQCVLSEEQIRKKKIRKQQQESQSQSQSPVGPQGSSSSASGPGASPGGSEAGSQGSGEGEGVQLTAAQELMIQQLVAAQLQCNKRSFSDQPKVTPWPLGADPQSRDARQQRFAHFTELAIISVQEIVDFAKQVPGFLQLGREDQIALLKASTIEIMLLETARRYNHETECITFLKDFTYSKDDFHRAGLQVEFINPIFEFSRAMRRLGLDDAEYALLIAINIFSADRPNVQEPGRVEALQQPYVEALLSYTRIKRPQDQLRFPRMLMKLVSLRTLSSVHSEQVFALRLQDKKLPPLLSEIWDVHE
As to the kind of experiment: LXR agonists, Gal4 luciferase reporter, dose response, counter-screen for ssDAF-12 agonist project, cell-based, luminescence, HEK293, S. stercoralis campaign (AID 720737). The experiment is classed as functional. Conditions: read-out: IC50 (the source's name).

The target of experiment [5] is T2, Oxysterols receptor LXR-beta. The class given is functional, cell-based.
Experiment [6] in a line: inhibitors of firefly luciferase expression or activity, dose response, H4 neuroglioma cells, luminescence (AID 1990). The class given is functional, cell-based.
The nature of experiment [7]: Luminescence Cell-Based Dose Response HTS to Identify Inhibitors of 5'UTR Stem-Loop Driven Prion Protein mRNA Translation in H4 Neuroglioblastoma Cells. [Related pubchem assays: 1827 (Project Summary), 1813 (Primary HTS)]. The experiment is classed as functional.
Experiment [8] concerns the target T1, Heat shock factor protein 1. The experiment is described as follows: inhibition of MG132-induced HSE-luciferase signal, confirmation, cell-based, NIH3T3, luminescence, dose retest (AID 2382).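 Further: NIH3T3 fibroblasts with HSF1-driven luciferase reporter stressed by proteasome inhibitor MG132; luminescence from HSF1-driven luciferase expression after 8 hours of MG132 stress.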 The class given is functional.
The nature of experiment [9]: inhibitors of SNCA 5'UTR-driven reporter translation, confirmation, H4 neuroglioma cells, luminescence (AID 1988). The experiment is classed as functional, cell-based.
A further experiment can be described thus: cells. The class given is functional, cell-based.
For experiment [10], the target named is T3, Nuclear receptor subfamily 0 group B member 1 (Homo sapiens, UniProt P51843).
T3 sequence (P51843 whole entry): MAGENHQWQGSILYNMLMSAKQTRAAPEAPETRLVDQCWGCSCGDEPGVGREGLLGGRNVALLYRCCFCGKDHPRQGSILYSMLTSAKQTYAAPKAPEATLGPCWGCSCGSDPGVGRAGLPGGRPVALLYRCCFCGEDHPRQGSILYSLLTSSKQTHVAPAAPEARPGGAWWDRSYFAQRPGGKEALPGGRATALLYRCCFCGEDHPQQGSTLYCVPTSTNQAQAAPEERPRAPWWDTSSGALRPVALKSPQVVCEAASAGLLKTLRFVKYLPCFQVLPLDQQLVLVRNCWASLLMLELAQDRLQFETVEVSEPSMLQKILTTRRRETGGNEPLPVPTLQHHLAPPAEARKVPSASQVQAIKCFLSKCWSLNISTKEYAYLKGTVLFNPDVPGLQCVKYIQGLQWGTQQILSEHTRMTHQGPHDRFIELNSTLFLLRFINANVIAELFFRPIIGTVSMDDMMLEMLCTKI
The class given is functional, cell-based.

Experiment [11] in a line: A549 cell cytotoxicity, dose response, cytotoxicity control, plate reader, cherry-pick, antagonist series (AID 743412). The experiment is classed as functional, cell-based.
Experiment [12] in a line: HepG2 cell cytotoxicity, dose response, cytotoxicity control, plate reader, cherry-pick, antagonist series (AID 743416). The class given is functional, cell-based.
Experiment [13] can be described thus: LGR2 antagonists, dose response, cell-based, HEK293, CRE-luciferase reporter, cherry pick, set 2 (AID 743343).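 Further: transfected cells were stimulated with diluted bursicon conditioned medium after compound addition.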 The class given is functional.
Experiment [14] is described as follows: MC4R antagonists, dose response, counter-screen for LGR2 antagonist project, cell-based, plate reader, cherry pick (AID 743444).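 Further: transfected HEK 293 cells stimulated with alpha-MSH peptide; potency of inhibitors of the alpha-MSH evoked signal.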 The experiment is classed as functional.
Experiment [15] is described as follows: HEK293 cell cytotoxicity, dose response, cytotoxicity control, plate reader, cherry-picked samples (AID 743446). The class given is functional, cell-based.
In experiment [16] the test system is HEK293. As to the kind of experiment: cells. The experiment is classed as functional, cell-based. As to conditions: Homo sapiens.
Experiment [17] deals with T3, Nuclear receptor subfamily 0 group B member 1. As to the kind of experiment: Luminescence-based cell-based high throughput dose response assay for inhibitors of the orphan nuclear receptor subfamily 0, group B, member 1 (DAX1; NR0B1). [Related pubchem assays (depositor defined):AID504766, AID504790]. The class given is functional.
A further experiment addresses fMet-Leu-Phe receptor (Homo sapiens, UniProt P21462). The experiment is described as follows: FPR ligands, dose response (AID 519). The experiment is classed as functional.
A further experiment has as its system HeLa. As to the kind of experiment: HeLa cell cytotoxicity, dose response, cytotoxicity control, ATP luminescence, cherry-pick samples (AID 687004). The class given is functional, cell-based. Conditions: Homo sapiens.
Experiment [18] deals with HEK293. The experiment is described as follows: HEK293T cell cytotoxicity, dose response, cytotoxicity control, ATP luminescence, cherry-pick samples (AID 687005).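 Further: cells exposed to compound for 48 hours.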 The class given is functional, cell-based. Conditions: Homo sapiens.
Experiment [19] can be described thus: HEK293 Cytotoxicity Assay Measured in Cell-Based System Using Plate Reader - 7071-01_Inhibitor_Dose_CherryPick_Activity_Set2. The class given is functional.
Experiment [20] can be described thus: P. falciparum 3D7-ScDHODH growth inhibitors, dose response, SYBR Green, dry powder samples (AID 1159570).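 Further: parasite growth measured after 72 hours of compound exposure.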 The experiment is classed as functional, cell-based.
The nature of experiment [21]: HepG2 cell cytotoxicity, dose response, cytotoxicity control, plate reader, dry powder samples (AID 1159569).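 Further: inhibitor potency with signal falling toward the positive control level.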 The class given is functional, cell-based.
Experiment [22] in a line: P. falciparum Dd2 growth inhibitors, dose response, SYBR Green, cherry-picked samples (AID 1159567). The experiment is classed as functional, cell-based.
A short description of experiment [23]: P. falciparum Dd2 growth inhibitors, dose response, SYBR Green, dry powder samples (AID 1159566).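 Further: potency for growth inhibition with lower SYBR green DNA signal.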 The class given is functional, cell-based.
Experiment [24] can be described thus: HepG2 cell cytotoxicity, dose response, cytotoxicity control, cherry-picked samples (AID 1159577). The class given is functional, cell-based.
Experiment [25] is described as follows: P. falciparum ATP4 D1247Y mutant growth inhibitors, dose response, NITD609-resistant line, SYBR Green, dry powder (AID 1159571).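 Further: parasites synchronized at ring stage by sorbitol before testing.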 The experiment is classed as functional, cell-based.
Experiment [26] is described as follows: intracellular Trypanosoma cruzi inhibitors in host cells – cell-based, plate reader, cherry-pick samples, set 3, dose response (AID 651818).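 Further: compounds incubated with infected cells for about four days.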 The class given is functional.
Experiment [27] can be described thus: inhibitors of PGC1a acetylation in cells, dose response, cell-based, cherry-picked samples (AID 720514).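 Further: potency may reflect raised or lowered acetylation signal.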 The experiment is classed as functional.

Active and inactive are the calls of the source. Some results are limits rather than exact numbers.

fMet-Leu-Phe receptor, sequence (P21462 whole entry): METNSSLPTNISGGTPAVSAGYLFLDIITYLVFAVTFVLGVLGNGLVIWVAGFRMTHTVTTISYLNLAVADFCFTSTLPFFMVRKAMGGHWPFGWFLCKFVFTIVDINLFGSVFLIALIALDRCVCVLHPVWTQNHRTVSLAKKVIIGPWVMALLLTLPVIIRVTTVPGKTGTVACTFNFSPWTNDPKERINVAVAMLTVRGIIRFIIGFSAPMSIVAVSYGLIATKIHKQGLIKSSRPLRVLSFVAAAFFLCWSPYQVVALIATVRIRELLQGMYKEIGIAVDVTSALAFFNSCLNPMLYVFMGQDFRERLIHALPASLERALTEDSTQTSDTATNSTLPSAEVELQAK
Endoplasmic reticulum aminopeptidase 1, sequence (Q9NZ08 whole entry): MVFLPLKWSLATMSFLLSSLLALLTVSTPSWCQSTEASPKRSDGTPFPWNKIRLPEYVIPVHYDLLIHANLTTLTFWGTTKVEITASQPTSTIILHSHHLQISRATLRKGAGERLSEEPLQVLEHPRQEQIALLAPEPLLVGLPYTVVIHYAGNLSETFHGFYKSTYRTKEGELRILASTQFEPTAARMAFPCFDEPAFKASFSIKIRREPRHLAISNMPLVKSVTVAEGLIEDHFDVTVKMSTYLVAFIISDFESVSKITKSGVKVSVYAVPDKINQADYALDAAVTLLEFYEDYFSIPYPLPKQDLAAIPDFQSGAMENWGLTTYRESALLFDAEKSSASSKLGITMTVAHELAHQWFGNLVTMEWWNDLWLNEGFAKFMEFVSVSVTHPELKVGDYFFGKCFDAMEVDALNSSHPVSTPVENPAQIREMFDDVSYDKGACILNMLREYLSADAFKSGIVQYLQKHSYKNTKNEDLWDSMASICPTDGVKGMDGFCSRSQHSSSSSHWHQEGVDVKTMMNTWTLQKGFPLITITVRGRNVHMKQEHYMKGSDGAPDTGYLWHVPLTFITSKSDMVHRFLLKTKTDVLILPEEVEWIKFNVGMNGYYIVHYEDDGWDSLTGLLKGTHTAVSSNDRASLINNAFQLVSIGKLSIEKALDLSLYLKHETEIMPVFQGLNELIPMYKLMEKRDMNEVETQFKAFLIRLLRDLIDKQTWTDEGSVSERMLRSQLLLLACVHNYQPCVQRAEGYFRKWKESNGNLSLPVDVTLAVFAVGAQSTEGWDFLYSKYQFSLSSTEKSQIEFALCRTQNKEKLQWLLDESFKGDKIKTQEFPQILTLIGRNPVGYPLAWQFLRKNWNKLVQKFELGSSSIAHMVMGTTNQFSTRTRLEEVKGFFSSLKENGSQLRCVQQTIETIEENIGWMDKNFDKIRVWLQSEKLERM

On to `O=c1oc2cc(O)ccc2cc1S(=O)(=O)c1ccccc1`, for which, in experiment [1], the EC50 is > 260 µM (inactive). Moreover, the AC50 in experiment [2] is 1.44 µM (active).
Turning to `Clc1ccc(-c2cn3cc(Cl)ccc3n2)cc1`, in [3], the IC50 is > 67.6 µM (inactive). In addition, the EC50 in [4] and in experiment [5] was > 67.6 µM (inactive) throughout.
Turning to `CC(=O)c1ccc(NC(=O)c2cnn3ccccc23)cc1`, the EC50 in experiment [6] was 2.12 µM (active); in [7], 1.43 µM (active); in experiment [8] it was 14.3 µM (active); in experiment [9] it was 1.68 µM (active). In addition, the IC50 (in the experiment “cells”; in experiment [10]) was > 67.5 µM (inactive) throughout. Moreover, the AC50 is 50.1 µM (active) in [11]; > 52 µM (inactive) in [12]; 9.16 µM (active) in experiment [13]; 11.7 µM (active) in [14]; > 52 µM (inactive) in experiment [15].
`C/C(=N\Nc1cccc2cccnc12)c1ccccc1O`: the IC50 (in the experiment on HEK293 [16]; in [17]; in experiment [3]) was > 67.5 µM (inactive) in each case. The EC50 in [4] is > 67.5 µM (inactive).
In the case of `CCc1ccccc1NC(=O)C(C#N)Cc1cccnc1` (configuration not stated), on fMet-Leu-Phe receptor, the Ki was 31.7 µM (inactive).
For `C[C@@H]1CN([C@H](C)CO)S(=O)(=O)c2ccc(C#CC3CC3)cc2O[C@H]1CN(C)CC1CCOCC1`, the AC50 with HeLa is > 52 µM (inactive); in the experiment with HEK293 [18], 15.4 µM (active); in experiment [19], 15.4 µM (active).
`C/C=C/c1ccc([C@@H]2[C@@H]3CN(Cc4cccnc4)C[C@H]2N3)cc1`: the AC50 in [20] is 1.41 µM (active); in [21] it was 24.2 µM (active); in [22], 1.41 µM (active); in [23], 1.27 µM (active); in experiment [24] it was > 39 µM (inactive); in experiment [25], 1.83 µM (active).
Turning to `C[C@H](CO)N1C[C@H](C)[C@H](CN(C)Cc2ccc(Oc3ccccc3)cc2)Oc2c(NC(=O)Nc3ccc4c(c3)OCO4)cccc2C1=O`, the figures for the AC50 in experiment [26] and in experiment [27] were 3.78 µM (active) and 16.9 µM (active), respectively.
